Measured values: PubChem BioAssay (NCI)
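Compound exposure: 48 hours, 5 concentrations, 96-well plates. Definition used: TGI = concentration required for complete inhibition of growth.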 Where a SMILES comes first, the peptide text is derived from it. The star is where a group is joined. Boc = CC(C)(C)OC(=O)*; Bn = c1ccc(C*)cc1

How the values were obtained:
Assay in all cases: DTP human tumour cell line panel, 48 h
EKVX NSCLC = system: EKVX NSCLC
NCI-H522 lung = system: NCI-H522 lung
OVCAR-3 ovarian = system: OVCAR-3 ovarian
HCC-2998 colon = system: HCC-2998 colon
HCT-116 colon = system: HCT-116 colon
SR leukemia = system: SR leukemia
KM12 colon = system: KM12 colon
OVCAR-5 ovarian = system: OVCAR-5 ovarian
MCF7 breast = system: MCF7 breast
DU-145 prostate = system: DU-145 prostate
HS 578T breast = system: HS 578T breast
U251 CNS = system: U251 CNS

Structure (SMILES)	TGI (EKVX NSCLC)	TGI (NCI-H522 lung)	TGI (OVCAR-3 ovarian)	TGI (HCC-2998 colon)	TGI (HCT-116 colon)	TGI (SR leukemia)	TGI (KM12 colon)	TGI (OVCAR-5 ovarian)	TGI (MCF7 breast)	TGI (DU-145 prostate)	TGI (HS 578T breast)	TGI (U251 CNS)
O=C1COc2cc3c(cc2N1)SCCC(=O)N3	> 100 µM	> 100 µM	> 100 µM	> 100 µM	> 100 µM	> 100 µM	> 100 µM	–	–	–	–	–
Cc1ccc(S(=O)(=O)NC(=O)NCC(N)=O)cc1	–	> 100 µM	–	–	> 100 µM	–	> 100 µM	> 100 µM	> 100 µM	> 100 µM	> 100 µM	> 100 µM
Cc1ccc(S(=O)(=O)OI(O)CC(F)(F)F)cc1	> 100 µM	> 100 µM	> 100 µM	> 100 µM	> 100 µM	> 100 µM	> 100 µM	> 100 µM	> 100 µM	> 100 µM	–	> 100 µM
COc1ccc(/C(=C\c2cc(OC)c(OC)c(OC)c2)C(=O)O)cc1	> 100 µM	47.7 µM	> 100 µM	–	> 100 µM	> 100 µM	85.6 µM	–	–	–	–	> 100 µM
CC(C)(C)CN1[C@@H]2CCCC[C@H]2N(CC(C)(C)C)P1(=O)C(O)/C=C/c1ccccc1 (some centres undefined)	> 100 µM	> 100 µM	> 100 µM	92.6 µM	> 100 µM	–	> 100 µM	> 100 µM	> 100 µM	> 100 µM	73.2 µM	> 100 µM
COc1cccc(N2C(=O)C3c4[nH]c5ccc(C)cc5c4C4CCC(C)CC4C3C2=O)c1 (centres undefined)	> 100 µM	–	> 100 µM	> 100 µM	> 100 µM	–	–	> 100 µM	> 100 µM	> 100 µM	64.9 µM	> 100 µM
CN(C(=O)c1cc2c(s1)sc1c(=O)n(C)c3ccccc3c12)c1ccccc1	> 100 µM	> 100 µM	> 100 µM	> 100 µM	> 100 µM	> 100 µM	> 100 µM	> 100 µM	> 100 µM	> 100 µM	–	> 100 µM
O=c1[nH]c2cc3[nH]c(=O)c(=O)[nH]c3cc2[nH]c1=O	> 100 µM	> 100 µM	> 100 µM	> 100 µM	> 100 µM	–	> 100 µM	> 100 µM	> 100 µM	> 100 µM	> 100 µM	> 100 µM
CC(C)(C)Cc1cc(O)ccc1O	> 100 µM	86.7 µM	> 100 µM	> 100 µM	> 100 µM	> 100 µM	> 100 µM	> 100 µM	> 100 µM	> 100 µM	–	> 100 µM
O=[N+]([O-])c1cc(Cl)ccc1S(=O)(=O)c1ccc(Cl)cc1[N+](=O)[O-]	–	29.9 µM	31.1 µM	–	29.2 µM	40.3 µM	27.7 µM	34 µM	–	–	–	34.5 µM
COC(=O)C(CC(C)C)NC(=O)CNC(=O)C(Cc1ccc(OCc2ccccc2)cc1)NC(=O)C(COCc1ccccc1)NC(=O)OC(C)(C)C (centres undefined) (Boc-S(Bn)Y(Bn)GL-OMe; configuration not given here)	> 100 µM	> 100 µM	> 100 µM	–	> 100 µM	> 100 µM	> 100 µM	> 100 µM	> 100 µM	> 100 µM	> 100 µM	> 100 µM
